{
  "source": "patent US9539275B2",
  "about": "“Melanogenesis effect of saponins of gynostemma pentaphyllum” (Hong Kong Baptist University, priority 2014, dated 2017)",
  "assay_type_in_all_cases": "cell-based, Mouse",
  "key": {"tyrosinase [1]": {"system": "tyrosinase", "assay": "Tyrosinase activity assay in B16F10 cells", "settings": "5 μM H89 with GpS 50-100 μg/ml, 48 hours", "protocol": "(§1) Cells were seeded in 96-well plates (3×10^3 cells/well) and allowed to adhere at 37° C. for 24 hours. Test samples were then added to individual wells. After 48 hours incubation, cells were washed with ice-cold PBS and 100 μl of 0.1% Triton X-100 lysis buffer were added into each well and lysed at −80° C. for 30 minutes. After freezing and thawing, 100 μl of freshly prepared substrate solution (0.1% L-DOPA) were added into a well on a 96-well plate. Following 2 hours incubation, the absorbance was determined at 475 nm with a microplate spectrophotometer (BD Bioscience, USA). Each percentage value of the drug-treated cells was calculated with respect to that of control cells. Each treatment was repeated three times."}, "tyrosinase [2]": {"system": "tyrosinase", "assay": "Tyrosinase activity assay in B16 cells", "settings": "5 μM H89 with GpS 50-150 μg/ml, 48 hours", "protocol": "as §1"}, "B16 cells [3]": {"system": "B16 cells", "assay": "Measurement of cellular melanin contents in B16 cells", "settings": "5 μM H89 with GpS 50-150 μg/ml, 48 hours", "protocol": "(§2) Cells were seeded in a 60 mm dish (2×10^5 cells/dish) and allowed to adhere at 37° C. for 24 hours. After adding test samples, cells were incubated for 48 hours and then washed with PBS and lysed in 120 μl of 1 M NaOH followed by 10 minutes of heating at 100° C. to solubilize the melanin. Each lysate (100 μl) was added into a well of a 96-well microplate, and the absorbance was determined at 475 nm with a microplate spectrophotometer (BD Bioscience, USA). The protein concentration of each sample was determined by DC Protein Assay (BIO-RAD, USA). Each experiment was repeated three times. The intracellular melanin amount/protein amount was shown as percentage values. Each percentage value of the drug-treated cells was calculated with respect to that of control cells."}, "B16F10 cells [4]": {"system": "B16F10 cells", "assay": "Colour of culture medium (extracellular melanin) and cell pellets, B16F10 cells", "protocol": "(§3) The PKA signaling pathway is known to take part in regulating melanogenic events. […] To further investigate the involvement of the PKA pathway in the induction of the melanogenic effect of GpS in B16 and B6F10 cells, a PKA inhibitor, H89, is employed. […] Cells are treated with GpS in the presence or absence of H89 inhibitor. […] H89 treatment effectively lightens the color of the culture medium as well as the cell pellets."}, "CREB [5]": {"system": "CREB", "assay": "Western blotting of p-CREB and CREB in B16F10 cells", "settings": "5 μM H89 in GpS-treated cells", "protocol": "(§4) Cells were collected and total protein lysates were extracted with RIPA lysis buffer [50 mM Tris-Cl, 1% v/v NP-40, 0.35% w/v sodium-deoxycholate, 150 mM NaCl, 1 mM EDTA, 1 mM EGTA, 1 mM phenylmethylsulfonyl fluoride (PMSF), 1 mM NaF, 1 mM Na3VO4, pH adjusted to 7.4] containing a protease inhibitor cocktail (Roche, Germany) for 30 minutes on ice. After centrifugation at 20,800×g for 15 minutes at 4° C., the supernatant was collected and regarded as total cell lysates.\n(§5) Protein concentration was determined by DC Protein Assay (Bio Rad, USA). A standard curve was created by bovine serum albumin (BSA) concentration 0, 0.375, 0.75 and 1.5 μg/μl for the determination of the absolute protein concentration. Then, the mixture of reagent A and reagent S (50:1) was mixed with 5 μl of protein lysate. Then 200 μl of reagent B were added and mixed with 10 minutes incubation at room temperature. Finally, the absorbance was determined at 700 nm with a microplate spectrophotometer (BD Bioscience, USA). […]\n(§6) Membranes were blocked for 30 minutes with 3% Bovine Serum Albumin in TBST buffer composed of 50 mM Tris (pH 7.6), 150 mM NaCl and 0.1% Tween-20 and incubated with the primary antibody overnight at 4° C. GADPH was used as loading control and was detected using an anti-GADPH polyclonal antibody (Santa cruz Biotechnology). […]"}, "B16F10 cells [6]": {"system": "B16F10 cells", "assay": "Measurement of cellular melanin contents in B16F10 cells", "settings": "5 μM H89 with GpS 50-100 μg/ml, 48 hours", "protocol": "as §2"}, "B16 cells [7]": {"system": "B16 cells", "assay": "MTT cell viability assay in B16 cells", "settings": "H89 up to 5 μM, 48 hours", "protocol": "(§7) Cell viabilities were determined using the MTT assay. Briefly, cells were seeded in 96-well plates (1×10^3 cells/well) and allowed to adhere at 37° C. for 24 hours. Various concentrations of drugs were then added. After 48 hours incubation, 20 μl of MTT solution (2.5 mg/ml in PBS) was added to each well and cells were incubated at 37° C. for 4 hours. Following medium removal, 100 μl of DMSO were added to each well and the plates were gently shaken for 5 minutes. Optical absorbance was determined at 570 nm with a microplate spectrophotometer (BD Bioscience, USA). Absorbance of cells without treatment was regarded as 100% of cell survival. Each treatment was performed in triplicate and each experiment was repeated three times."}, "B16 cells [8]": {"system": "B16 cells", "assay": "Colour of culture medium (extracellular melanin) and cell pellets, B16 cells", "protocol": "as §3"}, "B16F10 cells [9]": {"system": "B16F10 cells", "assay": "MTT cell viability assay in B16F10 cells", "settings": "H89 up to 5 μM, 48 hours", "protocol": "as §7"}, "CREB [10]": {"system": "CREB", "assay": "Western blotting of p-CREB and CREB in B16 cells", "settings": "5 μM H89 in GpS-treated cells", "protocol": "as §4, §5, §6"}, "[11]": {"settings": "co-treated with 5 μM H89 and GpS, compared with GpS-treated cells"}},
  "data": [
    {"smiles": "O=S(=O)(NCCNC/C=C/c1ccc(Br)cc1)c1cccc2cnccc12", "note": "[H89]", "values": [
      {"measurement": "GpS-induced increment of cellular tyrosinase activity", "setting": "tyrosinase [1]", "value": "significantly attenuated"},
      {"measurement": "GpS-induced increment of cellular tyrosinase activity", "setting": "tyrosinase [2]", "value": "significantly attenuated"},
      {"measurement": "GpS-induced increment of melanin content", "setting": "B16 cells [3]", "value": "significantly attenuated"},
      {"measurement": "colour of cell pellets", "setting": "B16F10 cells [4]; [11]", "value": "lighter in color"},
      {"measurement": "secretion of melanin induced by GpS", "setting": "B16F10 cells [4]; co-treatment with H89", "value": "attenuated"},
      {"measurement": "GpS-induced p-CREB expression", "setting": "CREB [5]", "value": "significantly attenuates"},
      {"measurement": "total CREB expression", "setting": "CREB [5]", "value": "without significant influence"},
      {"measurement": "GpS-induced increment of melanin content", "setting": "B16F10 cells [6]", "value": "significantly attenuated"},
      {"measurement": "cytotoxicity (MTT)", "setting": "B16 cells [7]", "value": "no cytotoxicity"},
      {"measurement": "colour of cell pellets", "setting": "B16 cells [8]; [11]", "value": "lighter in color"},
      {"measurement": "secretion of melanin induced by GpS", "setting": "B16 cells [8]; co-treatment with H89", "value": "attenuated"},
      {"measurement": "cytotoxicity (MTT)", "setting": "B16F10 cells [9]", "value": "no cytotoxicity"},
      {"measurement": "GpS-induced p-CREB expression", "setting": "CREB [10]", "value": "significantly attenuates"},
      {"measurement": "total CREB expression", "setting": "CREB [10]", "value": "without significant influence"}
    ]}
  ]
}
